Reference: PMC11801377, “A uniquely efficacious type of CFTR corrector with complementary mode of action” (Science Advances, 2024)

Molecular target: F508del-CFTR (Homo sapiens, UniProt P13569, DEL508-508)
Assay: SILAC heavy pulse light-chase assay: ER CFTR folding efficiency in CFBE41o- cells
Assay type: cell-based
Settings: 2.5-hour chase; 2 μM IDOR-3, 2 μM IDOR-4, 10 μM TEZ, 10 μM ELX, TEZ + ELX 10 μM each
Procedure: Stable isotope labeling using amino acids in cell culture (SILAC technology, Thermo Fisher Scientific) was used. For pulse-chase assays to determine CFTR folding efficiency at the ER, CFBE-F508del-CFTR or CFBE-WT-CFTR were seeded at 100,000 cells per well into a FNC-coated 24-well plate in CFBE growth medium and, the next day, incubated for 24 hours with “SILAC light medium” [arginine- and lysine-free RPMI 1640 #A33823, 84 mg/liter light L-arginine, # 89989, 146 mg/liter light L-lysine, #88429 and 20 mg/liter L-proline, # 89989 (to prevent a potential arginine-proline conversion)] supplemented with 10% dialyzed FBS. Cells were then washed once in PBS (37°C) and incubated for 1 hour with “starvation medium” (arginine-, lysine-free RPMI 1640, and 1% HSA) containing the indicated fixed concentrations of correctors. A 30-min metabolic pulse labeling was then performed by replacing the medium with “SILAC heavy medium” [arginine- and lysine-free RPMI 1640, L-proline (20 mg/liter), heavy L-arginine (84 mg/liter; ^13C6^15N4, #89990), heavy L-lysine (146 mg/liter; ^13C6^15N2, #88209), and 1% HSA] containing correctors. Cells were then washed with PBS and chased in SILAC light medium supplemented with 1% HSA and correctors. This medium was kept for 1, 2.5, 4, and 6 h of chase time followed by cell lysis in RIPA buffer as described above. […]

Sequence of F508del-CFTR (P13569 with tags, fused parts or gaps DEL508-508): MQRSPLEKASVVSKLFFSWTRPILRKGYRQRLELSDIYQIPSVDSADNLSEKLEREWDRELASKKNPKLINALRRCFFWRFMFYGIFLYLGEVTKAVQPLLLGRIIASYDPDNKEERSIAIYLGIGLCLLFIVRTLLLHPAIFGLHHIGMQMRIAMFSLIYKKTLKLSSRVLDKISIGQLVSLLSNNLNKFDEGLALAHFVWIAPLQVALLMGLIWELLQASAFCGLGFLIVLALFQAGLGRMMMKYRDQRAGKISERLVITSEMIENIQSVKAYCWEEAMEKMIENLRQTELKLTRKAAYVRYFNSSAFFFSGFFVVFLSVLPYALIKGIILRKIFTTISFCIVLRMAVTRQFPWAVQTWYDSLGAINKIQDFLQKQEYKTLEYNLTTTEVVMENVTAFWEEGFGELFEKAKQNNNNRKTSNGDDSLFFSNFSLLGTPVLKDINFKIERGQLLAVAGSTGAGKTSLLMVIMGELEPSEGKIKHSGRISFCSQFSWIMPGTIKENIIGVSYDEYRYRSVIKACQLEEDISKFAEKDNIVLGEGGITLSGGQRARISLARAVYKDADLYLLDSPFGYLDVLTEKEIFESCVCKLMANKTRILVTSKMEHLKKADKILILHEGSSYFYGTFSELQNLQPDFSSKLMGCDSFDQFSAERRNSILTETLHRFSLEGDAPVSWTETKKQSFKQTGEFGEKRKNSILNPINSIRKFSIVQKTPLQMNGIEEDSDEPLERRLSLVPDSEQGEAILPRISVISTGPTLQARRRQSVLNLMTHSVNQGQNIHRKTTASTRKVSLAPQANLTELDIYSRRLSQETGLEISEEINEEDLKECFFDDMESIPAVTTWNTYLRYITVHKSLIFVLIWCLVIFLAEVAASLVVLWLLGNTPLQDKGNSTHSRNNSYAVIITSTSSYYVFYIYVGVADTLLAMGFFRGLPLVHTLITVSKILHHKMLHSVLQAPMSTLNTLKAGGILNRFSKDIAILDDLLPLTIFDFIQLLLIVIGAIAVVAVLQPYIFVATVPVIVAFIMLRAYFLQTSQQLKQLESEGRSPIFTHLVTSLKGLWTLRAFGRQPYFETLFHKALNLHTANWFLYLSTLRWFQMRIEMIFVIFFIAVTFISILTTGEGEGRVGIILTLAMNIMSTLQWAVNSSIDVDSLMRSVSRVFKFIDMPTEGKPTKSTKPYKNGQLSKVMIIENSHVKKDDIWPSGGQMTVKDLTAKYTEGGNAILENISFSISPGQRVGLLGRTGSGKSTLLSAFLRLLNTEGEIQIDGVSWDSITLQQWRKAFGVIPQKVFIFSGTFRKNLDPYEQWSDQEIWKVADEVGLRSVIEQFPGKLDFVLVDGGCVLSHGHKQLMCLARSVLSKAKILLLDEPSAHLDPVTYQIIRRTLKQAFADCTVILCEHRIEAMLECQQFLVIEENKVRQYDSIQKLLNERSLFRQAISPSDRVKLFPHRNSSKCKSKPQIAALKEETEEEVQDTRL

SMILES	B-to-C conversion rate (folding efficiency)
Cc1nn(C)cc1S(=O)(=O)NC(=O)c1ccc(-n2ccc(OCC(C)(C)C(F)(F)F)n2)nc1N1C[C@@H](C)CC1(C)C [ELX, elexacaftor]	6.7%
CC(C)(CO)c1cc2cc(NC(=O)C3(c4ccc5c(c4)OC(F)(F)O5)CC3)c(F)cc2n1C[C@@H](O)CO [TEZ, tezacaftor]	2.4%
